Calls of active or inactive are those of the source. No cut-off for these calls is given here.
Tests used:
[1] = target: Acetylcholinesterase (Electrophorus electricus) (UniProt O42275); assay: Inhibition of electric eel AChE at 10 uM using acetylthiocholine iodide as substrate preincubated for 5 mins followed by substrate addition and measured after 1 min by Ellman's method relative to control; details: time 6.0 min
[2] = target: Acetylcholinesterase (Electrophorus electricus, UniProt O42275); assay: Inhibition of electric eel AChE using acetylthiocholine iodide as substrate preincubated for 5 mins followed by substrate addition and measured after 1 min in presence of H2O2 by Ellman's method
[3] = test system: SH-SY5Y; assay: Neuroprotective activity against H2O2-induced cytotoxicity in human SH-SY5Y cells assessed as cell viability at 5 uM preincubated for 6 hrs followed by H2O2 addition and measured after 24 hrs by MTT assay (reference value: 20%); assay type: functional; details: time 30 hrs, read-out: Activity
[4] = test system: SH-SY5Y; assay: Cytotoxicity against human SH-SY5Y cells assessed as reduction in cell viability at 31.25 uM measured after 72 hrs by MTT assay; assay type: cell-based
[5] = test system: SH-SY5Y; assay: Cytotoxicity against human SH-SY5Y cells assessed as reduction in cell viability at 7.81 to 15.62 uM measured after 72 hrs by MTT assay; assay type: cell-based; details: dose 7.81-15.62 µM
[6] = test system: SH-SY5Y; assay: Neuroprotective activity against H2O2-induced cytotoxicity in human SH-SY5Y cells assessed as cell viability at 20 uM preincubated for 6 hrs followed by H2O2 addition and measured after 24 hrs by MTT assay (reference value: 20%); assay type: functional; details: time 30 hrs, read-out: Activity
[7] = test system: SH-SY5Y; assay: Cytotoxicity against human SH-SY5Y cells assessed as reduction in cell viability at 7.81 to 31.25 uM measured after 72 hrs by MTT assay; assay type: cell-based; details: dose 7.81-31.25 µM
[8] = test system: SH-SY5Y; assay: Neuroprotective activity against H2O2-induced apoptosis in human SH-SY5Y cells assessed as reduction in Bax expression at 10 uM preincubated for 6 hrs followed by H2O2 addition and measured after 24 hrs by Western blot analysis; assay type: functional, cell-based; details: time 30.0 hrs
[9] = test system: SH-SY5Y; assay: Neuroprotective activity against H2O2-induced apoptosis in human SH-SY5Y cells assessed as increase in Bcl-2 expression at 10 uM preincubated for 6 hrs followed by H2O2 addition and measured after 24 hrs by Western blot analysis; assay type: functional, cell-based; details: time 30.0 hrs
[10] = test system: SH-SY5Y; assay: Neuroprotective activity against H2O2-induced apoptosis in human SH-SY5Y cells assessed as reduction in cleaved caspase-3 expression at 10 uM preincubated for 6 hrs followed by H2O2 addition and measured after 24 hrs by Western blot analysis; assay type: functional, cell-based; details: time 30.0 hrs
[11] = Drug uptake in human SH-SY5Y cells at 10 uM measured after 12 hrs by laser scanning confocal microscopic analysis; assay type: ADME, cell-based
[12] = Drug uptake in mouse BV-2 cells at 10 uM measured after 12 hrs by laser scanning confocal microscopic analysis; assay type: ADME, cell-based; details: bv-2, 12 h
[13] = test system: SH-SY5Y; assay: Neuroprotective activity against H2O2-induced apoptosis in human SH-SY5Y cells assessed as viable cells at 5 uM preincubated for 6 hrs followed by H2O2 addition and measured after 24 hrs by annexin V FITC/propidium iodide staining based flow cytometry (reference value: 41.7%); assay type: functional; details: time 30 hrs, read-out: Activity
[14] = test system: SH-SY5Y; assay: Induction of apoptosis in human SH-SY5Y cells assessed as necrotic cells at 10 uM incubated for 24 hrs by annexin V FITC/propidium iodide staining based flow cytometry (reference value: 0.8 %); assay type: cell-based
[15] = test system: BV-2; assay: Antiinflammatory activity in mouse BV-2 cells assessed as fold change in LPS-induced IL1beta mRNA expression at 5 uM preincubated for 6 hrs followed by LPS stimulation and measured after 24 hrs RT-qPCR analysis (reference value: 3.68 +/- 0.02); assay type: functional; details: time 30 hrs
[16] = test system: HepG2; assay: Hepatotoxicity in human HepG2 cells assessed as increase in ROS accumulation by measuring increase in green fluorescence at 25 to 50 uM measured after 24 hrs by ROS tracker based laser confocal microscopic analysis; assay type: toxicity, cell-based; details: hepg2, 24 h, dose 25-50 µM
[17] = test system: SH-SY5Y; assay: Neuroprotective activity against H2O2-induced apoptosis in human SH-SY5Y cells assessed as necrotic cells at 10 uM preincubated for 6 hrs followed by H2O2 addition and measured after 24 hrs by annexin V FITC/propidium iodide staining based flow cytometry (reference value: 44.3%); assay type: functional; details: time 30 hrs
[18] = test system: Rattus norvegicus; assay: Cognitive enhancing effect in Sprague-Dawley rat model of amyloid beta (25 to 35) peptide-induced memory impairment assessed as reduction in escape latency time at 0.9 mg per 100 g, […] qd for 4 weeks administered via gavage and measured after 4 to 5 days by Morris water maze test; assay type: functional, organism-based; details: time 32-33 day
[19] = test system: SH-SY5Y; assay: Neuroprotective activity against H2O2-induced apoptosis in human SH-SY5Y cells assessed as reduction in Bax expression preincubated for 6 hrs followed by H2O2 addition and measured after 24 hrs by Western blot analysis; assay type: functional, cell-based; details: dose 5-10 µM, time 30.0 hrs
[20] = in vitro; details: human, SH-SY5Y cells
[21] = test system: Rattus norvegicus; assay: Cognitive enhancing effect in Sprague-Dawley rat model of amyloid beta (25 to 35) peptide-induced memory impairment assessed as number of platform crossing at 0.9 mg per 100 g, […] qd for 4 weeks administered via gavage and measured after 5 days by Morris water maze test (reference value: 0.4); assay type: functional; details: time 33 day
[22] = test system: BV-2; assay: Antiinflammatory activity in mouse BV-2 cells assessed as reduction in LPS-induced TNFalpha mRNA expression preincubated for 6 hrs followed by LPS stimulation and measured after 24 hrs RT-qPCR analysis; assay type: functional, cell-based; details: dose 5-10 µM, time 30.0 hrs
[23] = test system: SH-SY5Y; assay: Induction of apoptosis in human SH-SY5Y cells assessed as late apoptotic cells at 10 uM incubated for 24 hrs by annexin V FITC/propidium iodide staining based flow cytometry (reference value: […]); assay type: cell-based
[24] = test system: SH-SY5Y; assay: Neuroprotective activity against H2O2-induced apoptosis in human SH-SY5Y cells assessed as early apoptotic cells at 5 uM preincubated for 6 hrs followed by H2O2 addition and measured after 24 hrs by annexin V FITC/propidium iodide staining based flow cytometry (reference value: 0.9%); assay type: functional; details: time 30 hrs
[25] = test system: BV-2; assay: Antiinflammatory activity in mouse BV-2 cells assessed as fold change in LPS-induced TNFalpha mRNA expression at 10 uM preincubated for 6 hrs followed by LPS stimulation and measured after 24 hrs RT-qPCR analysis (reference value: 3.86 +/- 0.25); assay type: functional; details: time 30 hrs
[26] = test system: Rattus norvegicus; assay: Cognitive enhancing effect in Sprague-Dawley rat model of amyloid beta (25 to 35) peptide-induced memory impairment assessed as time spent in target platform at 0.9 mg per 100 g, […] qd for 4 weeks administered via gavage and measured after 5 days by Morris water maze test (reference value: 0.5 sec); assay type: functional; details: time 33 day
[27] = test system: SH-SY5Y; assay: Induction of apoptosis in human SH-SY5Y cells assessed as early apoptotic cells at 10 uM incubated for 24 hrs by annexin V FITC/propidium iodide staining based flow cytometry (reference value: […]); assay type: cell-based
[28] = test system: SH-SY5Y; assay: Neuroprotective activity against H2O2-induced apoptosis in human SH-SY5Y cells assessed as increase in viable cells preincubated for 6 hrs followed by H2O2 addition and measured after 24 hrs by annexin V FITC/propidium iodide staining based flow cytometry; assay type: functional, cell-based; details: dose 5-10 µM, time 30.0 hrs
[29] = test system: SH-SY5Y; assay: Neuroprotective activity against H2O2-induced apoptosis in human SH-SY5Y cells assessed as necrotic cells at 5 uM preincubated for 6 hrs followed by H2O2 addition and measured after 24 hrs by annexin V FITC/propidium iodide staining based flow cytometry (reference value: 44.3%); assay type: functional; details: time 30 hrs
[30] = test system: BV-2; assay: Antiinflammatory activity in mouse BV-2 cells assessed as reduction in LPS-induced IL1beta mRNA expression preincubated for 6 hrs followed by LPS stimulation and measured after 24 hrs RT-qPCR analysis; assay type: functional, cell-based; details: dose 5-10 µM, time 30.0 hrs
[31] = test system: SH-SY5Y; assay: Neuroprotective activity against H2O2-induced apoptosis in human SH-SY5Y cells assessed as late apoptotic cells at 10 uM preincubated for 6 hrs followed by H2O2 addition and measured after 24 hrs by annexin V FITC/propidium iodide staining based flow cytometry (reference value: 13.1%); assay type: functional; details: time 30 hrs
[32] = test system: BV-2; assay: Antiinflammatory activity in mouse BV-2 cells assessed as fold change in LPS-induced TNFalpha mRNA expression at 5 uM preincubated for 6 hrs followed by LPS stimulation and measured after 24 hrs RT-qPCR analysis (reference value: 3.86 +/- 0.25); assay type: functional; details: time 30 hrs
[33] = test system: SH-SY5Y; assay: Neuroprotective activity against H2O2-induced apoptosis in human SH-SY5Y cells assessed as early apoptotic cells at 10 uM preincubated for 6 hrs followed by H2O2 addition and measured after 24 hrs by annexin V FITC/propidium iodide staining based flow cytometry (reference value: 0.9%); assay type: functional; details: time 30 hrs
[34] = test system: SH-SY5Y; assay: Neuroprotective activity against H2O2-induced apoptosis in human SH-SY5Y cells assessed as reduction in cleaved caspase-3 expression preincubated for 6 hrs followed by H2O2 addition and measured after 24 hrs by Western blot analysis; assay type: functional, cell-based; details: dose 5-10 µM, time 30.0 hrs
[35] = test system: SH-SY5Y; assay: Neuroprotective activity against H2O2-induced apoptosis in human SH-SY5Y cells assessed as reduction in cells with red fluorescence at 10 uM preincubated for 6 hrs followed by H2O2 addition and measured after 24 hrs by calcein AM/propidium iodide staining based laser confocal microscope; assay type: functional, cell-based; details: time 30.0 hrs
[36] = test system: BV-2; assay: Antiinflammatory activity in mouse BV-2 cells assessed as fold change in LPS-induced IL1beta mRNA expression at 10 uM preincubated for 6 hrs followed by LPS stimulation and measured after 24 hrs RT-qPCR analysis (reference value: 3.68 +/- 0.02); assay type: functional; details: time 30 hrs
[37] = Prodrug activation assessed as hydrolysis of benzyl ester bonds in presence of H2O2 by 1H-NMR analysis
[38] = test system: SH-SY5Y; assay: Neuroprotective activity against H2O2-induced apoptosis in human SH-SY5Y cells assessed as viable cells at 10 uM preincubated for 6 hrs followed by H2O2 addition and measured after 24 hrs by annexin V FITC/propidium iodide staining based flow cytometry (reference value: 41.7%); assay type: functional; details: time 30 hrs, read-out: Activity
[39] = test system: SH-SY5Y; assay: Neuroprotective activity against H2O2-induced apoptosis in human SH-SY5Y cells assessed as increase in Bcl-2 expression preincubated for 6 hrs followed by H2O2 addition and measured after 24 hrs by Western blot analysis; assay type: functional, cell-based; details: dose 5-10 µM, time 30.0 hrs
[40] = test system: BV-2; assay: Antiinflammatory activity in mouse BV-2 cells assessed as reduction in LPS-induced ROS level at 10 uM preincubated for 6 hrs followed by LPS stimulation and measured after 18 hrs by DCFH-DA staining based laser confocal microscopic analysis; assay type: functional, cell-based
[41] = test system: SH-SY5Y; assay: Neuroprotective activity against H2O2-induced apoptosis in human SH-SY5Y cells assessed as late apoptotic cells at 5 uM preincubated for 6 hrs followed by H2O2 addition and measured after 24 hrs by annexin V FITC/propidium iodide staining based flow cytometry (reference value: 13.1%); assay type: functional; details: time 30 hrs

Acetylcholinesterase (Electrophorus electricus), sequence (O42275 24-633 limits assumed): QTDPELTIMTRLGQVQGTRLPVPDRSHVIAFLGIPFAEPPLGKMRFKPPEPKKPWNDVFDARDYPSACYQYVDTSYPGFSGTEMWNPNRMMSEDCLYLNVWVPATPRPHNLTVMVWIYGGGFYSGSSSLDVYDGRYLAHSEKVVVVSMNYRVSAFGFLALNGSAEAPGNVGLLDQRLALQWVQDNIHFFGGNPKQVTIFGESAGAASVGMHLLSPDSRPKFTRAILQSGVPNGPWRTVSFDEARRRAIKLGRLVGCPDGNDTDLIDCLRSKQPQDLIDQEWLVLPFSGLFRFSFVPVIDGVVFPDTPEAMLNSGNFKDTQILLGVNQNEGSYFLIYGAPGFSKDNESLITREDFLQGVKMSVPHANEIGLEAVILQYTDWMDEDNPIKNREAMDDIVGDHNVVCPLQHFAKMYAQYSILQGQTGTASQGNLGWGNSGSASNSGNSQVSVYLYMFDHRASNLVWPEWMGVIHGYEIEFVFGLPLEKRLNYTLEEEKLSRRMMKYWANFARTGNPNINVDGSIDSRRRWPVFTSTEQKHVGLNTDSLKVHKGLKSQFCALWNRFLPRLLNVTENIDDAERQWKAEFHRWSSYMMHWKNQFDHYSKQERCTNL
Acetylcholinesterase, sequence (O42275 whole entry): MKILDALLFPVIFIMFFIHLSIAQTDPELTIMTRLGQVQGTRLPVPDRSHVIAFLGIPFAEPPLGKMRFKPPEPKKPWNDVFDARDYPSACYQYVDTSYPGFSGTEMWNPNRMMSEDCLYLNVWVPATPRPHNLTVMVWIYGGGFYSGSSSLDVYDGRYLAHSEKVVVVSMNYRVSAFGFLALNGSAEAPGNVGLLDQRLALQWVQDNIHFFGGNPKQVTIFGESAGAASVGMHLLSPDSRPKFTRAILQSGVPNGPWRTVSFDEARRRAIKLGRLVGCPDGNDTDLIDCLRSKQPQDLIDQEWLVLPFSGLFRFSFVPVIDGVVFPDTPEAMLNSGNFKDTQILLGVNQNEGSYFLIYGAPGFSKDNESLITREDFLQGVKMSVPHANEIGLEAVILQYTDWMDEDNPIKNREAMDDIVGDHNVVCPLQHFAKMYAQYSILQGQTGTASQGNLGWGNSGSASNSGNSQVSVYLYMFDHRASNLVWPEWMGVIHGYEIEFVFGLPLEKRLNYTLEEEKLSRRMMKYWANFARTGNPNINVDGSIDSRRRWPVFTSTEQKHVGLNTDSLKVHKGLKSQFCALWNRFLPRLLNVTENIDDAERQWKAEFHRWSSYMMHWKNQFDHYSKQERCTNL

Cc1cc(COC(=O)NCCCCNc2c3c(nc4ccccc24)CCCC3)c(OCc2ccc(B3OC(C)(C)C(C)(C)O3)cc2)c(COC(=O)C(C)c2ccc(CC(C)C)cc2)c1 (stereo not given)
inhibition [1]: 46% | IC50 [2]: 80 nM | viability at 5 µM [3]: > 50% | Activity [4]: Toxic | Activity [5]: Non-Toxic

Cc1cc(COC(=O)NCCCNc2c3c(nc4ccccc24)CCCC3)c(OCc2ccc(B3OC(C)(C)C(C)(C)O3)cc2)c(COC(=O)C(C)c2ccc(CC(C)C)cc2)c1 (stereo not given)
inhibition [1]: 32.9% | IC50 [2]: 302 nM | viability at 20 µM [6]: > 80% | viability at 5 µM [3]: > 50% | Activity [7]: Toxic

COc1cc(/C=C/C(=O)O)ccc1O
Activity [8]: Active | Activity [9]: Active | Activity [10]: Active

Cc1cc(COC(=O)CCCCCOc2ccc3ccc(=O)oc3c2)c(OCc2ccc(B3OC(C)(C)C(C)(C)O3)cc2)c(COC(=O)C(C)c2ccc(CC(C)C)cc2)c1 (stereo not given)
Drug uptake [11]: Active | Drug uptake [12]: Active

Cc1cc(COC(=O)NCCNc2c3c(nc4ccccc24)CCCC3)c(OCc2ccc(B3OC(C)(C)C(C)(C)O3)cc2)c(COC(=O)C(C)c2ccc(CC(C)C)cc2)c1 (stereo not given)
inhibition [1]: 28.2% | IC50 [2]: 608 nM | viability at 20 µM [6]: > 80% | viability at 5 µM [3]: > 50% | Activity [4]: Toxic | Activity [5]: Non-Toxic

Cc1cc(COC(=O)NCCCCCCNc2c3c(nc4ccccc24)CCCC3)c(OCc2ccc(B3OC(C)(C)C(C)(C)O3)cc2)c(COC(=O)C(C)c2ccc(CC(C)C)cc2)c1 (stereo not given)
inhibition [1]: 47.2% | viability at 5 µM [13]: 73.7% | IC50 [2]: 39.2 nM | Activity [14]: 2.48% | fold change (FC) [15]: 1.36 | Activity [16]: Toxic | Activity [17]: 7.3% | Activity [18]: Active | Activity [19]: Dose-dependent effect | viability at 24 h, 5 µM [20]: 90.4% | Activity [21]: 4.2 | Activity [22]: Dose-dependent effect | Activity [23]: 2.57% | viability at 20 µM [6]: > 80% | viability at 5 µM [3]: > 50% | Activity [4]: Non-Toxic | Activity [24]: 1.75% | fold change (FC) [25]: 1.2 | Time [26]: 2.2 s | Activity [27]: 1.65% | Activity [28]: Dose-dependent effect | Activity [29]: 14.1% | Activity [30]: Dose-dependent effect | Activity [31]: 4.97% | fold change (FC) [32]: 1.6 | Activity [33]: 1.17% | Activity [34]: Dose-dependent effect | Activity [35]: Active | fold change (FC) [36]: 0.86 | Drug metabolism [37]: Metabolite_Detected | viability at 10 µM [38]: 86.6% | Activity [39]: Dose-dependent effect | Activity [40]: Active | Activity [41]: 10.5%

Source: ChEMBL document CHEMBL4732099, “ROS-responsive and multifunctional anti-Alzheimer prodrugs: Tacrine-ibuprofen hybrids via a phenyl boronate linker” (Eur J Med Chem, 2021)
